Holding throughout (assay): DTP human tumour cell line panel, 48 h
Test [1] has as its system NCI-H522 lung.
Test [2] concerns A498 renal.
The test system of test [3] is KM12 colon.
The subject of test [4] is SK-OV-3 ovarian.
Test [5] relates to TK-10 renal.
The test system of test [6] is HOP-92 NSCLC.
Test [7] has as its system SK-MEL-5 melanoma.
Test [8] relates to DU-145 prostate.

The record followed here is PubChem BioAssay (NCI).

By GI50 is commonly meant the concentration giving 50% growth inhibition. As a reminder, the TGI is the concentration at which net growth stops. Lower therefore signals greater sensitivity of the cells.

Molecules are shown by their SMILES.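 Assay format: 96-well plates, 48-hour exposure. GI50 marks 50% less growth. At the TGI there is no net growth.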

Take `Cc1cc(C)nc(SC2=C(Nc3cccc(Cl)c3C)C(=O)N(Cc3ccccc3)C2=O)n1`: the GI50 in test [1], in test [2], in test [3], in test [4], in test [5] and in test [6] was over 160 µM in each case. The GI50 in test [7] and in test [8] was over 160 µM throughout. For the same compound, the TGI in test [1], in test [2], in test [3], in test [4], in test [5] and in test [6] was over 160 µM each time. The TGI in test [7] and in test [8] was over 160 µM throughout.
Take `CNCCCNc1nc2ccccc2c2c(=O)c3cc(Cl)ccc3sc12`: the GI50 in test [2] is 2.55 µM; in test [3], 1.48 µM; in test [4] it was 1.47 µM; in test [5], 1.99 µM; in test [6] it was 0.935 µM; in test [7], 2.13 µM. The GI50 in test [8] is 1.74 µM. Besides, the TGI in test [2] worked out at 7.41 µM; in test [3], 2.89 µM; in test [4], 2.89 µM; in test [5], 3.48 µM; in test [6], 2.81 µM; in test [7], 5.25 µM. In addition, the TGI in test [8] worked out at 3.14 µM.
Take `C#Cc1cccc(Nc2nc3ccc([N+](=O)[O-])cc3nc2Nc2cccc(C#C)c2)c1`: the GI50 in test [1] was 0.209 µM; in test [2], 0.227 µM; in test [3], 0.299 µM; in test [4] it was 0.257 µM; in test [6], 0.191 µM; in test [7], 0.181 µM. Moreover, in test [8], the GI50 was 0.367 µM. Also, the TGI in test [1] came to 0.609 µM; in test [2], 0.783 µM; in test [3], 1.03 µM; in test [4] it was 0.862 µM; in test [6] it was 0.704 µM; in test [7] it was 0.349 µM. For the same compound, the TGI in test [8] is 1.47 µM.
Take `CNC1C(O)C(OC2C(N)CC(N)C(OC3OC(C(C)O)C(O)C(O)C3N)C2O)OCC1(C)O` (centres undefined): the TGI in test [1], in test [2], in test [3], in test [4], in test [5] and in test [7] was over 100 µM each time. In test [8], this compound came in with a TGI of over 100 µM.
As to `N#Cc1ccc(C(c2ccc(C#N)cc2)n2cncn2)cc1`, the TGI in test [1], in test [2], in test [3], in test [4], in test [5] and in test [7] was over 5000 µM each time. Moreover, in test [8], the TGI was over 5000 µM. The GI50 in test [3] is over 5000 µM; in test [4] it was over 5000 µM; in test [5], 1310 µM; in test [7], 3.33 µM; in test [8], over 5000 µM.
Turning to `CC/C(C)=C1\OC(=O)C(C)C(O)C(Cc2cccnc2)NC(=O)C(NC(=O)c2ncccc2O)C(C)OC1=O` (centres undefined), the TGI in test [2], in test [3], in test [4], in test [5], in test [7] and in test [8] was over 100 µM throughout.
In the case of `COc1ccc(-c2cc(=O)c3c(O)cc(C)cc3o2)cc1OC`, the TGI in test [1], in test [3], in test [4], in test [5], in test [6] and in test [7] was over 100 µM throughout. Moreover, in test [8], the TGI was over 100 µM.
For `O=C(O)C1(Cc2cccc(Nc3nccs3)n2)CCC(Oc2cccc(Cl)c2F)CC1` (centres undefined), the GI50 in test [2] is 3.95 µM; in test [3], 0.204 µM; in test [4] it was 12.8 µM; in test [5], 18.8 µM; in test [6], 13 µM; in test [7], 14.8 µM. The GI50 in test [8] was 14.4 µM. Besides, the TGI in test [2] came out at 19.4 µM; in test [3] it was 29.3 µM; in test [4], 46 µM; in test [5], 61.9 µM; in test [6] it was 44.7 µM; in test [7] it was 28.7 µM. This compound also yielded a TGI in test [8] of 32.3 µM.
Consider `COc1ccc(C(=O)COc2cccc(/C=C3\CSc4ccc(C)cc4C3=O)c2)cc1`, for which the GI50 is 3.62 µM in test [1]; over 100 µM in test [2]; 3.69 µM in test [3]; 74.2 µM in test [4]; 19.8 µM in test [5]; 10.9 µM in test [7]. The GI50 in test [8] was 64.5 µM. The TGI in test [1] was 37.2 µM; in test [2] it was over 100 µM; in test [3] it was over 100 µM; in test [4] it was over 100 µM; in test [5], over 100 µM; in test [7], over 100 µM. In test [8], this compound returned a TGI of over 100 µM.
Consider `CC(=O)[O-].O=C([CH-]C(=O)c1ccccc1)c1ccccc1.O=C([CH-]C(=O)c1ccccc1)c1ccccc1.[Y+3]`, for which the GI50 in test [1] was 1.58 µM; in test [2] it was 16.7 µM; in test [3], 4.36 µM; in test [4] it was 8.31 µM; in test [5], 8.27 µM; in test [6], 4.04 µM. Besides, the GI50 in test [7] was 3.56 µM. In addition, the TGI in test [1] was determined as 6.06 µM; in test [2] it was 41.1 µM; in test [3], 24.5 µM; in test [4] it was 37.1 µM; in test [5], 66.5 µM; in test [6], 18.9 µM. In test [7], this compound showed a TGI of 14.2 µM.
For the compound `CCCCC#CC#Cc1cccc(=O)o1`, the GI50 was 23.2 µM in test [1]; 13.5 µM in test [3]; 27.3 µM in test [4]; 14.3 µM in test [5]; 33.2 µM in test [6]; 21.9 µM in test [8]. Besides, the TGI in test [1] is 52.1 µM; in test [3] it was 27.4 µM; in test [4], 46.7 µM; in test [5], 28.3 µM; in test [6], over 100 µM; in test [8], 50.8 µM.
`C/C(Cc1ccc(Cl)cc1)=C(/c1ccc(Cl)cc1)c1ccc(OCCN(C)C)cc1`: the GI50 is 5.31 µM in test [1]; 4.16 µM in test [3]; 5.42 µM in test [4]; 5.1 µM in test [5]; 1.62 µM in test [6]; 4.4 µM in test [7]. Moreover, the GI50 in test [8] was 4.74 µM. In addition, the TGI in test [1] was found to be 11.4 µM; in test [3], 8.95 µM; in test [4], 10.5 µM; in test [5], 10.8 µM; in test [6], 6.48 µM; in test [7], 8.78 µM. In test [8], this compound had a TGI of 9.44 µM.
